Measurements: patent US11629143B2, “HipK4 inhibitors and uses thereof” (Vibliome Therapeutics, LLC, priority 2020, dated 2023)

What was measured:
Assay in all cases: Kinase panel (mobility shift)
Type in all cases: biochemical
BRK = BRK (Homo sapiens, UniProt Q13882)
Procedure, shortened: (§1)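 Each kinase was incubated with a fluorescently labeled substrate and compound in a standard reaction mix. After the reaction was stopped, product and substrate were separated on microfluidic chips by electrophoretic mobility shift. Activity came from comparing product and substrate peak fluorescence, graded A (95% or greater), B (90%-94%) or C (80%-89%) at 5 um.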

EPH-A4 = EPH-A4 (Homo sapiens, UniProt P54764)
EPH-A4, sequence (P54764 20-986, species assumed): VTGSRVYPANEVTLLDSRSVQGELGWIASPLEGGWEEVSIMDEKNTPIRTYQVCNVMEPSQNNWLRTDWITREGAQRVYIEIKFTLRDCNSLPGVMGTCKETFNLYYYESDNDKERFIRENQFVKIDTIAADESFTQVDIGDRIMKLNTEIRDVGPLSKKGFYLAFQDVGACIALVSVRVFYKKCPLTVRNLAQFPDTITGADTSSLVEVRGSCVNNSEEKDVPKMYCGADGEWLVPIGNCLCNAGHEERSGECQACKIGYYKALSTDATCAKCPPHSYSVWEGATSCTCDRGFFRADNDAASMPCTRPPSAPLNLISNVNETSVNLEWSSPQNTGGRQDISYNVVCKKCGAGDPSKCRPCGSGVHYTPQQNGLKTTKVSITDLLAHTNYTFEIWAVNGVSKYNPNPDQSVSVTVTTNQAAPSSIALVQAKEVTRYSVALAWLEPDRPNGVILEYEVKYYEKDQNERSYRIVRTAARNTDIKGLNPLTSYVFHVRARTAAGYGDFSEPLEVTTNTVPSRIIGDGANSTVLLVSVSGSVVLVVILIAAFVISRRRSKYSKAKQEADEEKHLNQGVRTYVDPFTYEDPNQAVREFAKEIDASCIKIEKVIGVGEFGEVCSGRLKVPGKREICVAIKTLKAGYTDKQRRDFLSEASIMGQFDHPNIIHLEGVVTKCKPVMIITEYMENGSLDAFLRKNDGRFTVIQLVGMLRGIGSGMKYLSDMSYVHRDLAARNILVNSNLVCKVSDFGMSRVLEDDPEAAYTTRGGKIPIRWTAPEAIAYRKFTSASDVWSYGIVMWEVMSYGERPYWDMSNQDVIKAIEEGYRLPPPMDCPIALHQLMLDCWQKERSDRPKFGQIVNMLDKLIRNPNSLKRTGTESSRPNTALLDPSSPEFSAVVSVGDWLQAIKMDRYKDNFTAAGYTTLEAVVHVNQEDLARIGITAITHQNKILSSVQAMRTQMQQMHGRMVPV
Procedure, shortened: as §1

LOK = LOK (Homo sapiens, UniProt O94804); details: at 5 um
LOK, sequence (O94804 whole entry, species assumed): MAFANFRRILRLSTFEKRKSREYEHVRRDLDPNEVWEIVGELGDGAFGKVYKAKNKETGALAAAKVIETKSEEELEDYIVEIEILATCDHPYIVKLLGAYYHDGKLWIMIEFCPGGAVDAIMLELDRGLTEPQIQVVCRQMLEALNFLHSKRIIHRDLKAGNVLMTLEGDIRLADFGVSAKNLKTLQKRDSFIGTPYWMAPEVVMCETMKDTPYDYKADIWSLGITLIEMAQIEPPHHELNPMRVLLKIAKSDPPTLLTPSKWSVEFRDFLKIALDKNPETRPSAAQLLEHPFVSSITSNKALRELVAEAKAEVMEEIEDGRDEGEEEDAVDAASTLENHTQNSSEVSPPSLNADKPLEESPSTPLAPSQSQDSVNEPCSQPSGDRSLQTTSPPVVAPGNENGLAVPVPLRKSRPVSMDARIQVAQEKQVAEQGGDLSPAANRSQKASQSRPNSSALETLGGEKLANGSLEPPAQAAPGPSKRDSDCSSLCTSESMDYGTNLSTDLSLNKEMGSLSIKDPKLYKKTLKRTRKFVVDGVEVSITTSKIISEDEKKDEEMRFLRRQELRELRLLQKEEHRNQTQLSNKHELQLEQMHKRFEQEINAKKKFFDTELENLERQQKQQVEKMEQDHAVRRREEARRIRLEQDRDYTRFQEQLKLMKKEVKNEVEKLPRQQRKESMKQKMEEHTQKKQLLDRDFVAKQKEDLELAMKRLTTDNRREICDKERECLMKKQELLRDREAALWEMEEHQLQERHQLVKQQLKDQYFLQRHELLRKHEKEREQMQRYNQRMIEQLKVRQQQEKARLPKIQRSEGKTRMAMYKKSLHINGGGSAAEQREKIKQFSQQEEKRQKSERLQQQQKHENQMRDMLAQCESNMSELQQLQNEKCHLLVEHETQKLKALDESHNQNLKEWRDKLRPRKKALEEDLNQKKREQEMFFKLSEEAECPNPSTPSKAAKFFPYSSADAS
Procedure, shortened: as §1

EPH-A8 = target: T1, EPH-A8 (Homo sapiens, UniProt P29322)
T1 sequence (P29322 28-1005): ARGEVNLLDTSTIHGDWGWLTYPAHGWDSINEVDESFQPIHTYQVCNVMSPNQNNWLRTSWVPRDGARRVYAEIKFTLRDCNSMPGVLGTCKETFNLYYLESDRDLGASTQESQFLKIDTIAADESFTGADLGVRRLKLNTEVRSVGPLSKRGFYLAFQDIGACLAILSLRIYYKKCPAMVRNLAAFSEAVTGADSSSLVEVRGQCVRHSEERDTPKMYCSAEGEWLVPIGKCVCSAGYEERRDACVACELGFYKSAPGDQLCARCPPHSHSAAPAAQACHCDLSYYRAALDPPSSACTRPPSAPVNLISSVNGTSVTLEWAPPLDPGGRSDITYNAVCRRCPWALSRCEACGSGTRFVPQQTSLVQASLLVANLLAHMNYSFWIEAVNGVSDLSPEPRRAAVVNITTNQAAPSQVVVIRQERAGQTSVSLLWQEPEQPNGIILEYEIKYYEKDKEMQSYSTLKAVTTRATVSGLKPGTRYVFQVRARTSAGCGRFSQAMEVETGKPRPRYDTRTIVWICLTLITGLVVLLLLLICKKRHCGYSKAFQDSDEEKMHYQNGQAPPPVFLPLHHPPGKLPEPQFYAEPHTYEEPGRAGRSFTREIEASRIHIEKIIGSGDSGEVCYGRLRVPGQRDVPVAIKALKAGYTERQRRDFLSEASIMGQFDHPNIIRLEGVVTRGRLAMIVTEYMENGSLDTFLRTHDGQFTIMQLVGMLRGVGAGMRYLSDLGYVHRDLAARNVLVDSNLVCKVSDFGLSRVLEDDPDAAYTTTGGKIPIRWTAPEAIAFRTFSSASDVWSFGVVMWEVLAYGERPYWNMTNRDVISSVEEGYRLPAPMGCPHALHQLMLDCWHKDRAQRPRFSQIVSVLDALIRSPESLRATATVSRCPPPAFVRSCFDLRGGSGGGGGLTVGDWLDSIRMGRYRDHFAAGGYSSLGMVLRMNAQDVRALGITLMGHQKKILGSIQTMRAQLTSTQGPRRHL
Procedure, shortened: as §1

EPH-B4 = target: T2, EPH-B4 (Homo sapiens, UniProt P54760)
T2 sequence (P54760 16-987): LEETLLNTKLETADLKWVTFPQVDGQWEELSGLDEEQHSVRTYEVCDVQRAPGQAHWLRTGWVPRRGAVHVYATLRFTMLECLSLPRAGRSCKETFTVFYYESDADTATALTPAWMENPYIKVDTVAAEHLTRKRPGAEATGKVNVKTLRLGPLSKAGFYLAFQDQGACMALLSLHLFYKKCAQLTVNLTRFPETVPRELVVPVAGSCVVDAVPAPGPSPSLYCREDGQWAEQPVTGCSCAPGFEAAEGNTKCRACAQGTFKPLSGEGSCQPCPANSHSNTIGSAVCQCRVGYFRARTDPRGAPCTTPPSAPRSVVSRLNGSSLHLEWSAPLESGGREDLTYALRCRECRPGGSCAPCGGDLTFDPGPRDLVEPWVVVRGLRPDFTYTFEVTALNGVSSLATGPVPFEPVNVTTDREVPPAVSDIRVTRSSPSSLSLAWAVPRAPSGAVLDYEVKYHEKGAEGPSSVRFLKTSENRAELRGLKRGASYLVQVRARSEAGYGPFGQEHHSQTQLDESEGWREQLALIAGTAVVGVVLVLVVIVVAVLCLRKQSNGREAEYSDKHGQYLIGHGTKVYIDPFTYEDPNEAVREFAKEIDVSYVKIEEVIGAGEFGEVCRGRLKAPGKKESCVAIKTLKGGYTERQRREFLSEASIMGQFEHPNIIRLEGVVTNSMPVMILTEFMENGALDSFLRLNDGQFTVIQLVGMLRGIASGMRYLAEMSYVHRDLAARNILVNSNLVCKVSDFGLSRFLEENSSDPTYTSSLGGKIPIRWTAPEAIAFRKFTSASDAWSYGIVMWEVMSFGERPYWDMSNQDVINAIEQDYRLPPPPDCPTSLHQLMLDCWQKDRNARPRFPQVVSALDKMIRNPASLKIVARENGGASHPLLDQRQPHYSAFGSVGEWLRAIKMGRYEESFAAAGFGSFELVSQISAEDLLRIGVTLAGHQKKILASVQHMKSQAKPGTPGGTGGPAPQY
Procedure, shortened: as §1

HIPK3 = HIPK3 (Homo sapiens, UniProt Q9H422)
HIPK3, sequence (Q9H422 whole entry, species assumed): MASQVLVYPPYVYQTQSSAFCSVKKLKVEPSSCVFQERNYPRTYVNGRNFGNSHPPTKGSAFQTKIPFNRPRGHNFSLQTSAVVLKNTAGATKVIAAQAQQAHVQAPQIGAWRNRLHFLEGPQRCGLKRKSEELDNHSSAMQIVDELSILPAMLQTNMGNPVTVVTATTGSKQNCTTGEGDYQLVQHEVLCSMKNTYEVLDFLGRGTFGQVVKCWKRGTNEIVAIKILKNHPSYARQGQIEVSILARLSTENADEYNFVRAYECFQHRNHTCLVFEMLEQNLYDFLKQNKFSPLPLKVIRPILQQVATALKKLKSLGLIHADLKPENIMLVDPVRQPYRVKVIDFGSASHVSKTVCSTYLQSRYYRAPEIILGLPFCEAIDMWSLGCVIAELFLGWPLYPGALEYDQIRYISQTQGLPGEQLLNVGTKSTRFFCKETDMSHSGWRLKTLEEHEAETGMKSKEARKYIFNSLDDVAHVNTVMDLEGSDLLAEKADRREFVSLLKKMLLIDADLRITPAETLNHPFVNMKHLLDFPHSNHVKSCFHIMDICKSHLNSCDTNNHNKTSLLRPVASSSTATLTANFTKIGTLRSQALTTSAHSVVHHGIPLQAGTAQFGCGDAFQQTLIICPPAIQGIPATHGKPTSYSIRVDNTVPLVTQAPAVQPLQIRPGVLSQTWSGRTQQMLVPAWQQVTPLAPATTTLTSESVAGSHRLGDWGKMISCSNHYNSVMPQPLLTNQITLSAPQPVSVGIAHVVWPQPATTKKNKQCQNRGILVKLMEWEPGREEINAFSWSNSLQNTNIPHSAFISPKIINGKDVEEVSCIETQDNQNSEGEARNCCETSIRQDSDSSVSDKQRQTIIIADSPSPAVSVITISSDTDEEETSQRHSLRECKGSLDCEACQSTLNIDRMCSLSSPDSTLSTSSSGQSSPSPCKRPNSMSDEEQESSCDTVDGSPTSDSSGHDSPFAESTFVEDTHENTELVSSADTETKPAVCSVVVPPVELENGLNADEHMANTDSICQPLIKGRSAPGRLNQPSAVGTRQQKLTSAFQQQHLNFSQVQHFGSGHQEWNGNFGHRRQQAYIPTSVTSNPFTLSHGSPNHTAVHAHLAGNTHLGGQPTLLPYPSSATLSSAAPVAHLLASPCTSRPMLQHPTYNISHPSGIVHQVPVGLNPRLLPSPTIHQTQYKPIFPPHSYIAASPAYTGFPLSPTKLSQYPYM
Procedure, shortened: as §1

BRK, sequence (Q13882 whole entry, species assumed): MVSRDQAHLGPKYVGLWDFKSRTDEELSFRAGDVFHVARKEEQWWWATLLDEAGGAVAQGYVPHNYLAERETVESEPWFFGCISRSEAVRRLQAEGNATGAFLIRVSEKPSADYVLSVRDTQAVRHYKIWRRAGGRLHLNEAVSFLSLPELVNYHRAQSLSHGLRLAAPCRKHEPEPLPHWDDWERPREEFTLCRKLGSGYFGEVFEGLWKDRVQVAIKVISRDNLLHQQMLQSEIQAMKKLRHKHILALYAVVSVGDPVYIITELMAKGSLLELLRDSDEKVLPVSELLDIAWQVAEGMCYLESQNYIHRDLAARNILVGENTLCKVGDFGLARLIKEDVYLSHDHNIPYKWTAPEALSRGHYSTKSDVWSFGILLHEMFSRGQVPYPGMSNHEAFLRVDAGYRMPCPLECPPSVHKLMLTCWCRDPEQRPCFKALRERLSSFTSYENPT

Row | inhibition at 5 µM (BRK) | inhibition at 5 µM (EPH-A4) | inhibition of kinase activity, LOK (LOK) | inhibition at 5 µM (EPH-A8) | inhibition at 5 µM (EPH-B4) | inhibition at 5 µM (HIPK3) | Structure (SMILES)
1 | < 50% | < 50% | E (category E is less than 50%) | < 50% | < 50% | < 50% | CSc1nc(C(=O)Nc2ccc(Oc3ccnc(C(=O)NC4CNC4)c3)c(F)c2)c(-c2ccc(F)s2)o1 [Compound 27]
2 | < 50% | < 50% | E (category E is less than 50%) | < 50% | < 50% | < 50% | CSc1nc(C(=O)Nc2ccc(Oc3ccnc(C(=O)NC4COC4)c3)c(F)c2)c(-c2ccc(F)s2)o1 [Compound 28]
3 | ≥ 95% | 50 to 79% | D (category D for 50-79) | 50 to 79% | < 50% | 80 to 89% | CSc1nc(C(=O)Nc2ccc(Oc3ccnc(C(=O)NC4CNC4)c3)c(F)c2)c(-c2ccc(F)cc2)o1 [Compound 29]
4 | ≥ 95% | 90 to 94% | A (A=95% or greater at 5 um) | 90 to 94% | 80 to 89% | 90 to 94% | CNC(=O)c1cc(Oc2ccc(NC(=O)c3nc(COC)oc3-c3ccc(F)cc3)cc2F)ccn1 [Compound 30]
5 | 80 to 89% | < 50% | D (category D for 50-79) | < 50% | < 50% | < 50% | CSc1nc(C(=O)Nc2ccc(Oc3ccnc(C(=O)NC4COC4)c3)c(F)c2)c(-c2ccc(F)cc2)o1 [Compound 31]
6 | ≥ 95% | 50 to 79% | B (B=90%-94% at 5 um) | 80 to 89% | 50 to 79% | 50 to 79% | CNC(=O)c1cc(Oc2ccc(NC(=O)c3nc(OC4CC4)oc3-c3ccc(F)cc3)cc2F)ccn1 [Compound 32]
7 | 50 to 79% | < 50% | C (C=80%-89% at 5 um) | < 50% | < 50% | 50 to 79% | [2H]C([2H])([2H])NC(=O)c1cc(Oc2ccc(NC(=O)c3nc(SC)oc3-c3ccc(F)c(F)c3)cc2F)ccn1 [Compound 33]
8 | 90 to 94% | 90 to 94% | A (A=95% or greater at 5 um) | 80 to 89% | 80 to 89% | < 50% | CNC(=O)c1cc(Oc2ccc(NC(=O)c3nc(SC(C)C)oc3-c3ccc(F)cc3)cc2F)ccn1 [Compound 34]
9 | < 50% | < 50% | D (category D for 50-79) | < 50% | < 50% | < 50% | [2H]C([2H])([2H])NC(=O)c1cc(Oc2ccc(NC(=O)c3nc(SC)oc3-c3ccc(F)s3)cc2F)ccn1 [Compound 35]
10 | < 50% | < 50% | E (category E is less than 50%) | < 50% | < 50% | 50 to 79% | CNC(=O)c1ccc(Oc2ccc(NC(=O)c3nc(Cl)oc3-c3ccc(F)cc3)c(F)c2)cn1 [Compound 36]
11 | < 50% | < 50% | E (category E is less than 50%) | < 50% | < 50% | < 50% | CSc1nc(C(=O)Nc2ccc(Oc3ccnc(C(=O)NC4COC4)c3)c(F)c2)c(-c2ccc(F)c(F)c2)o1 [Compound 37]
12 | 90 to 94% | < 50% | C (C=80%-89% at 5 um) | 50 to 79% | 50 to 79% | 50 to 79% | CNC(=O)c1cc(Oc2ccc(NC(=O)c3nc(OCC(F)(F)F)oc3-c3ccc(F)cc3)cc2F)ccn1 [Compound 38]
13 | 50 to 79% | < 50% | E (category E is less than 50%) | < 50% | < 50% | < 50% | COc1nc(C(=O)Nc2ccc(Oc3ccnc(C(=O)NC4COC4)c3)c(F)c2)c(-c2ccc(F)cc2)o1 [Compound 39]
14 | 50 to 79% | < 50% | E (category E is less than 50%) | < 50% | < 50% | < 50% | CSc1nc(C(=O)Nc2ccc(Oc3ccnc(C(=O)NCC(F)(F)F)c3)c(F)c2)c(-c2ccc(F)cc2)o1 [Compound 40]
15 | ≥ 95% | 50 to 79% | E (category E is less than 50%) | 50 to 79% | < 50% | < 50% | CSc1nc(C(=O)Nc2ccc(Oc3ccnc(C(=O)NCCN(C)C)c3)c(F)c2)c(-c2ccc(F)cc2)o1 [Compound 41]
16 | ≥ 95% | < 50% | E (category E is less than 50%) | < 50% | < 50% | 50 to 79% | CSc1nc(C(=O)Nc2ccc(Oc3ccnc(C(=O)NC4CCN(C)CC4)c3)c(F)c2)c(-c2ccc(F)cc2)o1 [Compound 42]
17 | < 50% | < 50% | E (category E is less than 50%) | < 50% | < 50% | < 50% | COc1nc(C(=O)Nc2ccc(Oc3ccnc(C(=O)NCC(F)(F)F)c3)c(F)c2)c(-c2ccc(F)cc2)o1 [Compound 43]
